The source of these data is PMC4245125, “Pharmacological and Behavioral Characterization of D-473, an Orally Active Triple Reuptake Inhibitor Targeting Dopamine, Serotonin and Norepinephrine Transporters” (PLoS ONE, 2014).

Values joined by “and” are separate entries in the source; they are usually repeats but may differ in a detail not shown here. Equal values may be shown once.

One experiment has as its target 5HT2b (Homo sapiens, UniProt P41595). Kind of experiment: NIMH PDSP receptor binding, 5HT2b. The note with it: [3H]LSD.
The next experiment has as its target T1, M2 (Homo sapiens, UniProt P08172).
T1 construct: purchased NIMH PDSP
In words: biochemical. The note with it: read-out: % Inhibition of Binding at 10 µM D-473.

The target in another experiment is T2, 5HT2a (Homo sapiens, UniProt P28223).
T2 construct: purchased NIMH PDSP
Kind of experiment: NIMH PDSP receptor binding, 5HT2a. The note with it: [3H]ketanserin, read-out: % Inhibition of Binding at 10 µM D-473.

The next experiment has as its target T3, 5HT2c (Homo sapiens, UniProt P28335).
T3 construct: purchased NIMH PDSP
In words: NIMH PDSP receptor binding, 5HT2c. The note with it: [3H]Mesulergine, read-out: % Inhibition of Binding at 10 µM D-473.

A further experiment has as its target T4, D2 (Homo sapiens, UniProt P14416).
T4 construct: purchased NIMH PDSP
Kind of experiment: NIMH PDSP receptor binding, D2. The settings on record: [3H]N-methylspiperone, read-out: % Inhibition of Binding at 10 µM D-473.

For the next experiment, the target named is T5, Alpha2B (Homo sapiens, UniProt P18089).
T5 construct: purchased NIMH PDSP
In words: NIMH PDSP receptor binding, Alpha2B. The settings on record: [3H]Clonidine, read-out: % Inhibition of Binding at 10 µM D-473.

In another experiment the test system is BZP Rat Brain Site. Kind of experiment: NIMH PDSP receptor binding, BZP Rat Brain Site. The note with it: 3H-Flunitrazepam.
In another experiment the target is hDAT (Homo sapiens, UniProt Q01959). In words: Inhibition of [3H]DA uptake by cloned human DAT in HEK293 cells. The settings on record: nM, HEK293 cells expressing hDAT, average±S.E.M., 3 to 10 determinations.
The target of another experiment is T6, H3 (Homo sapiens, UniProt Q9Y5N1).
T6 construct: purchased NIMH PDSP
Kind of experiment: NIMH PDSP receptor binding, H3. The note with it: [3H]Alpha-methyl Histamine, read-out: % Inhibition of Binding at 10 µM D-473.

The target in another experiment is T7, 5HT7 (Homo sapiens, UniProt P34969).
T7 construct: purchased NIMH PDSP
Kind of experiment: NIMH PDSP receptor binding, 5HT7. The settings on record: [3H]LSD, read-out: % Inhibition of Binding at 10 µM D-473.

A further experiment concerns the target T8, Beta1 (Homo sapiens, UniProt P08588).
T8 construct: purchased NIMH PDSP
Kind of experiment: NIMH PDSP receptor binding, Beta1. The note with it: [125I]Iodopindolol, read-out: % Inhibition of Binding at 10 µM D-473.

In a further experiment the target is D5 (Homo sapiens, UniProt P21918). In words: NIMH PDSP receptor binding, D5.
A further experiment deals with T9, M1 (Homo sapiens, UniProt P11229).
T9 construct: purchased NIMH PDSP
In words: biochemical. The settings on record: read-out: % Inhibition of Binding at 10 µM D-473.

Another experiment concerns the target T10, µ-Opioid (Homo sapiens, UniProt P35372).
T10 construct: purchased NIMH PDSP
In words: NIMH PDSP receptor binding, µ-Opioid. The note with it: [3H]Diprenorphine, read-out: % Inhibition of Binding at 10 µM D-473.

The target of another experiment is T11, δ-opioid (Homo sapiens, UniProt P41143).
T11 construct: purchased NIMH PDSP
Kind of experiment: NIMH PDSP receptor binding, δ-opioid. The note with it: [3H]DADLE, read-out: % Inhibition of Binding at 10 µM D-473.

A further experiment has as its target T12, Alpha2A (Homo sapiens, UniProt P08913).
T12 construct: purchased NIMH PDSP
In words: NIMH PDSP receptor binding, Alpha2A. The note with it: [3H]Clonidine, read-out: % Inhibition of Binding at 10 µM D-473.

The target of a further experiment is T13, 5HT1b (Homo sapiens, UniProt P28222).
T13 construct: purchased NIMH PDSP
Kind of experiment: NIMH PDSP receptor binding, 5HT1b. The settings on record: [3H]GR-125743, read-out: % Inhibition of Binding at 10 µM D-473.

A further experiment concerns the target T14, 5HT3 (Homo sapiens, UniProt P46098).
T14 construct: purchased NIMH PDSP
Kind of experiment: NIMH PDSP receptor binding, 5HT3. The settings on record: [3H] LY 278,584, read-out: % Inhibition of Binding at 10 µM D-473.

The subject of experiment [1] is locomotor activity (horizontal activity). Kind of experiment: Locomotor activity in rats. In kind it is in vivo. The settings on record: rat; 25 mg/kg oral; 2 h post administration; vs vehicle. How it is done: Sprague Dawley Rats were tested at 25 mg/kg oral dose of D-473 to monitor changes in any locomotor activity in acrylic Auto-Track/Opto-Varimex-4 System (Columbus Instrument; Columbus, Ohio). The purpose was to evaluate locomotor activity of the same doses of drug that were used in the forced swim test. Rats were acclimated in the test chambers for 1 h prior to oral administration of D-473. Locomotor activity of the drug was measured for a total of two hour post administration of the drug which corresponded to the time of measurement in the forced swimming experiment. GBR 12909 was studied as a control drug known to stimulate and was administered i.p. as in published studies; vehicle was orally administered.

The next experiment addresses T15, κ-opioid (Homo sapiens, UniProt P41145).
T15 construct: purchased NIMH PDSP
Kind of experiment: NIMH PDSP receptor binding, κ-opioid. The settings on record: [3H]Bremazocine, read-out: % Inhibition of Binding at 10 µM D-473.

As a reminder, the inhibition is the relative decrease from the control value, in per cent. What is called Ki is a dissociation constant, usually derived from enzyme kinetics or from competition with a known ligand.

D5, sequence (P21918 whole entry): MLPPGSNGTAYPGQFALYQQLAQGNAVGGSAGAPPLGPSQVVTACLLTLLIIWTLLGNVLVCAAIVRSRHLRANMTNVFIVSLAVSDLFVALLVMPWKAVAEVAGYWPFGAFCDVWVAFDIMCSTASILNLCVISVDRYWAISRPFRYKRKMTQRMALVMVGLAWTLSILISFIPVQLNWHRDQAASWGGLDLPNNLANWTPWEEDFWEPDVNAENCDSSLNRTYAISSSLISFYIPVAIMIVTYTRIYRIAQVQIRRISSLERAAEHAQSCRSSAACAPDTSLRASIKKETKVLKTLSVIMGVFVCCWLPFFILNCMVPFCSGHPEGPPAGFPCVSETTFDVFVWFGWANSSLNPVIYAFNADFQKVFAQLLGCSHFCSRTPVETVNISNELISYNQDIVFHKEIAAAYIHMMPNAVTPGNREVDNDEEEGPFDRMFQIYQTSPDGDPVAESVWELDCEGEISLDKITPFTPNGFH
hDAT, sequence (Q01959 whole entry): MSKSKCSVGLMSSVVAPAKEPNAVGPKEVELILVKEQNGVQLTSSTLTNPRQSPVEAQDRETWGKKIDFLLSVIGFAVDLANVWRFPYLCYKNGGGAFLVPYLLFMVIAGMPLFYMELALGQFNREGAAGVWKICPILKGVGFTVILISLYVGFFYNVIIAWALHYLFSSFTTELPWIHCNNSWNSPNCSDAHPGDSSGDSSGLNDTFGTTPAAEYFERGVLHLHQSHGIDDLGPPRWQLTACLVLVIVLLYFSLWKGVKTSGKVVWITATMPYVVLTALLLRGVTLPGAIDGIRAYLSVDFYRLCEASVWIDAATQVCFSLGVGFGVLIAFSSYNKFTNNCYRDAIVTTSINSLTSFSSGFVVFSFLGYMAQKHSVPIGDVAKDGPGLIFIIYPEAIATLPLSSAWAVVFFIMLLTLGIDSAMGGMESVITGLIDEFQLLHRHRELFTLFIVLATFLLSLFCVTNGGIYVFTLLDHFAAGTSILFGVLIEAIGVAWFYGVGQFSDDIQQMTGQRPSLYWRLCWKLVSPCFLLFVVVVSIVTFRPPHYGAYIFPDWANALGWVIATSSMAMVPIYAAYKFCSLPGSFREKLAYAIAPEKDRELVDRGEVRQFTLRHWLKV
5HT2b, sequence (P41595 whole entry): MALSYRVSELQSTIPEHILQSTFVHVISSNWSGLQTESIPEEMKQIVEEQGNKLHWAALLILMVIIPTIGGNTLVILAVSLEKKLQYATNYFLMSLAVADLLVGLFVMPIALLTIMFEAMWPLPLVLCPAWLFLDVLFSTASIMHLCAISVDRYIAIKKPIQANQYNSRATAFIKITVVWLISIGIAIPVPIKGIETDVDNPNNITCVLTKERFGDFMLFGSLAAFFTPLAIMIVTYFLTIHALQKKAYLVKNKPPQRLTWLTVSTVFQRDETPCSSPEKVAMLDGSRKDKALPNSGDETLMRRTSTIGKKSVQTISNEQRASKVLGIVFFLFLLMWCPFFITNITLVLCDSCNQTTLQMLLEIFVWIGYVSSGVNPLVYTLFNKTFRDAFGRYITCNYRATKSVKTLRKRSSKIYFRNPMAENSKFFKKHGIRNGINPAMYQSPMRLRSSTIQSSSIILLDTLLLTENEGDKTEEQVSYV
T13 sequence (P28222 whole entry): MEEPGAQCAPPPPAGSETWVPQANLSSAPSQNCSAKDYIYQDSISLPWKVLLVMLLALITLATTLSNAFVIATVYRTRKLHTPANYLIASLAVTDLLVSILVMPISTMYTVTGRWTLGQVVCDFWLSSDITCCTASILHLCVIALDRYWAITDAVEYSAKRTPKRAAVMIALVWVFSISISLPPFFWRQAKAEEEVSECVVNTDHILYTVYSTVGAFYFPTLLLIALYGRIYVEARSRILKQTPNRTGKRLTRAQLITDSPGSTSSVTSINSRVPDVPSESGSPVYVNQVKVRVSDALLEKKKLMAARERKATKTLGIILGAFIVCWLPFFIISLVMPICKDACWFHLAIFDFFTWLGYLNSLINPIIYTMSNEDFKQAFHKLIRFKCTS
T4 sequence (P14416 whole entry): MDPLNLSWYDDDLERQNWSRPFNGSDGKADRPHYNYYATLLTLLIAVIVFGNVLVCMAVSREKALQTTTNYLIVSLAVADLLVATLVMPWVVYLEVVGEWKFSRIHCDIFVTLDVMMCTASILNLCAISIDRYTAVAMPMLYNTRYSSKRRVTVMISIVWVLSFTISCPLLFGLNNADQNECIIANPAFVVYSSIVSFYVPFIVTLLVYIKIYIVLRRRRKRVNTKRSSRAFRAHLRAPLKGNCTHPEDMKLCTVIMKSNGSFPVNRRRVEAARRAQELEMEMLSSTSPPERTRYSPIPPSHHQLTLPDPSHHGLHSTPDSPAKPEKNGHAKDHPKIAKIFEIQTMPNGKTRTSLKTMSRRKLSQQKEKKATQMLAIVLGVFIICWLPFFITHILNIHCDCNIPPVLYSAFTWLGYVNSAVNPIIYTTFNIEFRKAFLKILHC
T14 sequence (P46098 24-478): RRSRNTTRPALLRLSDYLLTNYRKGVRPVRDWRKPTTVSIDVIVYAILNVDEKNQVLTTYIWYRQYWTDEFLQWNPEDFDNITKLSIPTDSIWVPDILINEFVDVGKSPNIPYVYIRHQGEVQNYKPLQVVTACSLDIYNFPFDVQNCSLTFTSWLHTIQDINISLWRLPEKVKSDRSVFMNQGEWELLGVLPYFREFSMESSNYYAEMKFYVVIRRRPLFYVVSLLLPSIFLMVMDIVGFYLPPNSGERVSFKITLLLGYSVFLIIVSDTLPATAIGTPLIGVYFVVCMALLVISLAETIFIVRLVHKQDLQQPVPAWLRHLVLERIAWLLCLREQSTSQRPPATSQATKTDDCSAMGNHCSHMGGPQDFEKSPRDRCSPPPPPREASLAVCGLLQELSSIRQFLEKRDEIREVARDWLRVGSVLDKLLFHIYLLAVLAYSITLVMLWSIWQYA
T11 sequence (P41143 whole entry): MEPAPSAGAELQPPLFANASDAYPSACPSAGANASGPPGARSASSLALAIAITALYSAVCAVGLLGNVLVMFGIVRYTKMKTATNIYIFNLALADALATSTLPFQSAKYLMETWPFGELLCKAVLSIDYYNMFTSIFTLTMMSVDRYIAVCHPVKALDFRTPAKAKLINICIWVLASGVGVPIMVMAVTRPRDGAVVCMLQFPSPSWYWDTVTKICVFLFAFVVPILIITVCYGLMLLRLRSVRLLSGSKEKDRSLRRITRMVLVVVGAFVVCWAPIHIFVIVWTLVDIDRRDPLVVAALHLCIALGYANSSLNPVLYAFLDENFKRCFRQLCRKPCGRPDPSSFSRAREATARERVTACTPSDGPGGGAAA
T1 sequence (P08172 whole entry): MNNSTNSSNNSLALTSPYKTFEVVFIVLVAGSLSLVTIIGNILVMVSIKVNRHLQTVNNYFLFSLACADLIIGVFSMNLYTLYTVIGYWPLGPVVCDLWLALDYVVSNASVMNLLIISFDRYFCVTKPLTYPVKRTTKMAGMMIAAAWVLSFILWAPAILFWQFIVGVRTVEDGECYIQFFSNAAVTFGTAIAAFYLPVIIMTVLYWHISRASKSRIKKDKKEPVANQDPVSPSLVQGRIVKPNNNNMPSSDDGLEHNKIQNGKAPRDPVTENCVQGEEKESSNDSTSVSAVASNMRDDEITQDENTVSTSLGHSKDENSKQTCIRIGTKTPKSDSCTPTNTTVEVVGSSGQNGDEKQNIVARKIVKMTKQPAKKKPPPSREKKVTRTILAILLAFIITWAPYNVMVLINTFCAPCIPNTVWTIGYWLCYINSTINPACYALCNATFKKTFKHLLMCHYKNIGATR
T12 sequence (P08913 whole entry): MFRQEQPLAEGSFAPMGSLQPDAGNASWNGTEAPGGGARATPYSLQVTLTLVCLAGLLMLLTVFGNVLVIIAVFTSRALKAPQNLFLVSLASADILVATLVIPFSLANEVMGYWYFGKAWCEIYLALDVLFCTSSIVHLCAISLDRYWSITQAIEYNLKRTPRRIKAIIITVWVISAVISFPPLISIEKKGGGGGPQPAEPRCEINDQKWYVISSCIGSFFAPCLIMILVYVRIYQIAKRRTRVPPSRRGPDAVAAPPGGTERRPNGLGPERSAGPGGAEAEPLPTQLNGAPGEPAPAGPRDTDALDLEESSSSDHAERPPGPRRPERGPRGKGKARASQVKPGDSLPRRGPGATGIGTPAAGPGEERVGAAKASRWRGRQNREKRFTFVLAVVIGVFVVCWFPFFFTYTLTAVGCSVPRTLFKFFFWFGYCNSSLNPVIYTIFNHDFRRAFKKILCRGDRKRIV
T2 sequence (P28223 whole entry): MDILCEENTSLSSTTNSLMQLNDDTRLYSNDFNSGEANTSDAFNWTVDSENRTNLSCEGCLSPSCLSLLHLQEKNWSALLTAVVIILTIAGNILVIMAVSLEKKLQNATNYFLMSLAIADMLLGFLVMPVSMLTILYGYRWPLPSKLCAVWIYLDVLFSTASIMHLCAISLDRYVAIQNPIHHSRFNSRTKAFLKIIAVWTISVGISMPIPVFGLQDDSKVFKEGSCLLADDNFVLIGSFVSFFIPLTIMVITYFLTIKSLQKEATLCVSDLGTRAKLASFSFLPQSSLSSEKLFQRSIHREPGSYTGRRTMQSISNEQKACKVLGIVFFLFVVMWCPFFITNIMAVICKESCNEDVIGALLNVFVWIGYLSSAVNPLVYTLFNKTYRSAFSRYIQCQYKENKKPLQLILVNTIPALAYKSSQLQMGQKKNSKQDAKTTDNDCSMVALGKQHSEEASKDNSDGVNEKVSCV

Turning to `COc1ccc(CN[C@@H]2CO[C@H](C(c3ccc(F)cc3)c3ccc(F)cc3)C[C@H]2O)cc1` [Compound D-473, (2S,4R,5R)-2-(bis(4-fluorophenyl)methyl)-5-((4-methoxybenzyl)amino)tetrahydro-2H-pyran-4-ol], the inhibition at 10 µM at 5HT2b (10 µM, read-out: % Inhibition of Binding at 10 µM D-473) is 70.8%; at M2, -9.5%; on 5HT2a, 16.3%; at 5HT2c, 45.4%; on D2, 42.9%; on Alpha2B, 25.4%. The inhibition at 10 µM on H3 is -14.7%; on 5HT7, 41.4%; at Beta1, 24.6%; at D5 ([3H]SCH 23390, 10 µM, read-out: % Inhibition of Binding at 10 µM D-473), 74.7%; at M1, 15%; at µ-Opioid it was 20.5%. For the same compound, the inhibition at 10 µM at δ-opioid came out at 42.7%; at Alpha2A, 14.5%; at 5HT1b, 14.2%; on 5HT3 it was 3.5%; on κ-opioid, 48.5%. Besides, the Ki at 5HT2b (secondary assay, read-out: Ki for D-473) is 597 nM; at hDAT, 70 nM and 70.4 nM; at D5 ([3H]SCH 23390, secondary assay, read-out: Ki for D-473) it was 1570 nM. Moreover, the “% Inhibition of Binding at 10 µM D-473” value with BZP Rat Brain Site is on record as −3%. For the same compound, the “Locomotor activity (horizontal activity)” value in experiment [1] is on record as “statistically indistinguishable from vehicle”.
